Molecules are shown by their SMILES.

The test system of one assay is HBsAg in HepG2.2.15 cells. Put plainly: HBsAg Assay: inhibition of HBsAg in HepG2.2.15 cells (CLIA immunoassay of supernatant). To be noted: Hepatitis B virus, HepG2.2.15, 144 h, read-out: sAg EC50, μM, HepG2.2.15 cells; supernatant collected at day 6 after exposure of compounds; final DMSO 0.5%. In kind it is cell-based, hepatitis B virus. The procedure: Inhibition of HBsAg was determined in HepG2.2.15 cells. Cells were maintained in culture medium containing 10% fetal calf serum, […], Glutamine, penicillin/streptomycin. Cells were seeded in 96-well collagen-coated plate at a density of 30,000 cells/well. Serially diluted compounds were added to cells next day at the final DMSO concentration of 0.5%. Cells were incubated with compounds for 2-3 days, after which medium was removed. Fresh medium containing compounds was added to cells for additional 3-4 days. At day 6 after exposure of compounds, supernatant was collected, the HBsAg immunoassay (microplate-based chemiluminescence immunoassay kits, CLIA, Autobio Diagnosics Co., Zhengzhou, China, Catalog #CL0310-2) was used to determine the level of HBsAg according to manufactory instruction. Dose-response curves were generated and the EC50 value (effective concentrations that achieved 50% inhibitory effect) were determined using XLfit software. In addition, cells were seeded at a density of 5,000 cells/well for determination of cell viability in the presence and absence of compounds by using CellTiter-Glo reagent (Promega). Tables 1-3 show EC50 values obtained by the HBsAg assay for selected compounds.
`COc1c(C(=O)O)c(=O)c2c(n1C)-c1cc(OC(F)F)c3ncccc3c1CC2C(C)(C)C` (stereo not drawn) [Example 46, 6-(tert-Butyl)-12-(difluoromethoxy)-9-methoxy-10-methyl-7-oxo-5,6,7,10-tetrahydroquinolino[7,8-f]quinoline-8-carboxylic Acid]: the EC50 was 0.3 µM.

Regarding `CC(C)(C)C1Cn2c(nc3c(OC(F)F)cccc32)-c2[nH]c(=O)c(C(=O)O)c(O)c21` (stereo not drawn) [Example 25, 5-(tert-Butyl)-11-(difluoromethoxy)-4-hydroxy-2-oxo-1,2,5,6-tetrahydrobenzo[4,5]imidazo[1,2-h][1,7]naphthyridine-3-carboxylic Acid], the EC50 came out at 0.004 µM. Same read-out and setting: as for `CCN1CCCc2c3c(cc(OC(F)F)c21)-c1[nH]c(=O)c(C(=O)O)cc1C(C(C)(C)C)C3` (stereo not drawn) [Example 34, 6-(tert-Butyl)-12-(difluoromethoxy)-1-ethyl-9-oxo-1,2,3,4,5,6,9,10-octahydroquinolino[7,8-f]quinoline-8-carboxylic Acid], the figure is 0.012 µM; as for `COc1nc2c(c3ccccc13)CC(C(C)(C)C)c1cc(C(=O)O)c(=O)n(C)c1-2` (stereo not drawn) [Example 43, 12-(tert-Butyl)-6-methoxy-4-methyl-3-oxo-3,4,11,12-tetrahydrobenzo[c][1,10]phenanthroline-2-carboxylic Acid], 0.023 µM; as for `COCCOc1cccc2c1cc1n2CC(C(C)(C)C)c2c-1[nH]c(=O)c(C(=O)O)c2O` (stereo not drawn) [Example 6, 5-(tert-Butyl)-4-hydroxy-11-(2-methoxyethoxy)-2-oxo-1,2,5,6-tetrahydroindolo[1,2-h][1,7] naphthyridine-3-carboxylic Acid], 0.76 µM. Still for that read-out and setting: as for `COc1cccc2c1nc1n2CC(C(C)(C)C)c2c-1[nH]c(=O)c(C(=O)O)c2O` (stereo not drawn) [Example 24, 5-(tert-Butyl)-4-hydroxy-11-methoxy-2-oxo-1,2,5,6-tetrahydrobenzo[4,5]imidazo[1,2-h][1,7]naphthyridine-3-carboxylic Acid], the figure is 0.02 µM.

For the compound `COc1[nH]c2c(c(=O)c1C(=O)O)C(C(C)(C)C)Cc1c-2cc(OC(F)F)c2ncccc12` (stereo not drawn) [Example 47, 6-(tert-butyl)-12-(difluoromethoxy)-9-methoxy-7-oxo-5,6,7,10-tetrahydroquinolino[7,8-f]quinoline-8-carboxylic Acid], the concentration giving a half-maximal response (EC50) amounted to 0.14 µM.

The same assay, now with this note: read-out: sAg EC50; HepG2.2.15 cells; supernatant collected at day 6 after exposure of compounds; final DMSO 0.5%.
Take `CC(C)C1Cc2cc(C(=O)O)c(=O)[nH]c2-c2nc3c(OC(F)F)cccn3c21` (single isomer, unassigned) [Example 21, 11-(Difluoromethoxy)-6-isopropyl-2-oxo-1,2,5,6-tetrahydropyrido[2′,1′:2,3]imidazo[4,5-h]quinoline-3-carboxylic Acid]: the EC50 came out at 6 µM.

Turning to `CC(C)(C)C1Cc2c(nc3c(OC(F)F)cccn23)-c2[nH]c(=O)c(C(=O)O)c(O)c21` (single isomer, unassigned) [Example 8, 5-(tert-Butyl)-11-(difluoromethoxy)-4-hydroxy-2-oxo-1,2,5,6-tetrahydropyrido[2′,1′:2,3]imidazo[4,5-h]quinoline-3-carboxylic Acid], the 50% effective concentration (EC50) came to 0.22 µM. With `Cn1c2c(cc(C(=O)O)c1=O)C(C(C)(C)C)Cc1c-2cc(OC(F)F)c2ncccc12` (single isomer, unassigned) [Example 39, 6-(tert-Butyl)-12-(difluoromethoxy)-10-methyl-9-oxo-5,6,9,10-tetrahydroquinolino[7,8-f]quinoline-8-carboxylic Acid], the EC50 turned out to be 10 µM. Still for that read-out and setting: then `CC(C)C1Cc2c(nc3c(OC(F)F)cccn23)-c2[nH]c(=O)c(C(=O)O)cc21` (single isomer, unassigned) [Example 12, 11-(Difluoromethoxy)-5-isopropyl-2-oxo-1,2,5,6-tetrahydropyrido[2′,1′:2,3]imidazo[4,5-h]quinoline-3-carboxylic Acid], with 0.018 µM; and `COc1cccn2c3c(nc12)-c1[nH]c(=O)c(C(=O)O)cc1C(C(C)(C)C)C3` (single isomer, unassigned) [Example 15, 5-(tert-Butyl)-11-methoxy-2-oxo-1,2,5,6-tetrahydropyrido[2′,1′:2,3]imidazo[4,5-h]quinoline-3-carboxylic Acid], with 1 µM; and `Cn1c2c(cc(C(=O)O)c1=O)C(C(C)(C)C)Cc1c-2nc(Cl)c2ccccc12` (single isomer, unassigned) [Example 45, 12-(tert-Butyl)-6-chloro-4-methyl-3-oxo-3,4,11,12-tetrahydrobenzo[c][1,10]phenanthroline-2-carboxylic Acid], with 1 µM. Still for that read-out and setting: then `CN1CCCc2c3c(cc(OC(F)F)c21)-c1[nH]c(=O)c(C(=O)O)cc1C(C(C)(C)C)C3` (single isomer, unassigned) [Example 33, 6-(tert-Butyl)-12-(difluoromethoxy)-1-methyl-9-oxo-1,2,3,4,5,6,9,10-octahydroquinolino[7,8-f]quinoline-8-carboxylic Acid], with 0.3 µM; and `CC(C)C1Cc2cc(C(=O)O)c(=O)[nH]c2-c2nc3c(OC(F)F)cccn3c21` (single isomer, unassigned) [Example 20, 11-(Difluoromethoxy)-6-isopropyl-2-oxo-1,2,5,6-tetrahydropyrido[2′,1′:2,3]imidazo[4,5-h]quinoline-3-carboxylic Acid], with 0.099 µM. On to `COc1cc2c(c3cccnc13)CC(C(C)(C)C)c1cc(C(=O)O)c(=O)[nH]c1-2` (single isomer, unassigned) [Example 35, 6-(tert-Butyl)-12-methoxy-9-oxo-5,6,9,10-tetrahydroquinolino[7,8-f]quinoline-8-carboxylic Acid], for which the concentration for a half-maximal effect (EC50) is 0.027 µM.

As for `CC(C)(C)C1Cc2c(nc3c(OC(F)F)cccn23)-c2[nH]c(=O)c(C(=O)O)cc21` (single isomer, unassigned) [Example 10, 5-(tert-Butyl)-11-(difluoromethoxy)-2-oxo-1,2,5,6-tetrahydropyrido[2′,1′:2,3]imidazo[4,5-h]quinoline-3-carboxylic Acid], the concentration giving a half-maximal response (EC50) was determined as 0.003 µM. Still for that read-out and setting: then `COc1cccn2c3c(nc12)-c1[nH]c(=O)c(C(=O)O)cc1C(C(C)C)C3` (single isomer, unassigned) [Example 17, 5-Isopropyl-11-methoxy-2-oxo-1,2,5,6-tetrahydropyrido[2′,1′:2,3]imidazo[4,5-h]quinoline-3-carboxylic Acid], with 10 µM; and `CC(C)(C)C1Cc2c(nc3c(OC(F)F)cccn23)-c2[nH]c(=O)c(C(=O)O)cc21` (single isomer, unassigned) [Example 11, 5-(tert-Butyl)-11-(difluoromethoxy)-2-oxo-1,2,5,6-tetrahydropyrido[2′,1′:2,3]imidazo[4,5-h]quinoline-3-carboxylic Acid], with 27 µM; and `CC(C)C1Cc2c(nc3c(OC(F)F)cccn23)-c2[nH]c(=O)c(C(=O)O)cc21` (single isomer, unassigned) [Example 13, 11-(Difluoromethoxy)-5-isopropyl-2-oxo-1,2,5,6-tetrahydropyrido[2′,1′:2,3]imidazo[4,5-h]quinoline-3-carboxylic Acid], with 1.1 µM. With `COc1cccc2c1nc1n2CC(C(C)(C)C)c2cc(C(=O)O)c(=O)[nH]c2-1` (single isomer, unassigned) [Example 27, 5-(tert-Butyl)-11-methoxy-2-oxo-1,2,5,6-tetrahydrobenzo[4,5]imidazo[1,2-h][1,7]naphthyridine-3-carboxylic Acid], the concentration for a half-maximal effect (EC50) is 10 µM.

One may read the EC50 as the concentration needed to bring the measured effect to its halfway point.
